Results taken from US20150141375A1 (priority 2009, published 2015).
Several values for one entry are separate records, joined by “and”; a condition that tells them apart may be missing. Identical values can stand only once. Entries after “also recorded” stand apart in the source; their conditions may differ.

How the values were obtained:
HHV-6 = assay: In vitro potency against dsDNA viruses: HHV-6; assay type: cell-based
[1] = Safety and pharmacokinetics of CMX001 in healthy volunteers; assay type: in vivo, human; conditions: for AUC / Cmax: blood, Human, analyte = label
Protocol: An initial study was conducted to evaluate the safety and pharmacokinetics of CMX001 in healthy volunteers. The study consisted of a single dose arm (SD) and a multiple dose arm (MD). In the single dose arm 7 cohorts of 6 subjects were treated (4 subjects received active drug and 2 placebo). Enrollment was staggered as 2 subjects (one active, one placebo) followed by 4 subjects (Groups A and B). The estimated single doses for the two highest doses treated for a […] subject were 40 mg (0.6 mg/kg cohort 6) and 70 mg (1 mg/kg cohort 7). In the multiple dose arm, cohort 6MD received 0.1 mg/kg on Day 0, 6 and 12; Cohort 7MD received 0.2 mg/kg on Day 0, 6 and 12. Levels of cidofovir, CMX001 and CMX064 (major metabolite) were measured in blood and urine of subjects during the course of the study. Gastrointestinal (GI) monitoring of the subjects included (a) monitoring for clinical signs of GI adverse events, (b) monitoring for clinical symptoms using a visual Analog Scale, (c) monitoring for appetite loss/anorexia, nausea, vomiting, diarrhea, constipation and intestinal gas/bloating, (d) laboratory tests for fecal occult blood; serum electrolytes, urine specific gravity, BUN/creatinine ratio; serum albumin, and lipids, and (e) diagnostic studies (the Wireless capsule endoscopy (PillCam®, Given Imaging)).

CMV = assay: First fifteen EIND patients: CMV; assay type: in vivo, human; conditions: six CMV patients, three evaluable
Description: Three were evaluable for viral load reductions and 3/3 responded. Two of the patients who could not be evaluated for reductions in CMV had undetectable levels throughout CMX001 therapy. One patient received only one dose of CMX001 with no virologic follow up.

[2] = Oral toxicology studies, nephrotoxicity; assay type: in vivo, mice, rats, rabbits and monkeys
Description: In addition, over twenty-one toxicology studies have been conducted in mice, rats, rabbits and monkeys with CMX001 being delivered by the oral route.

HCMV = HCMV viral DNA accumulation in HFF cells, real time PCR, 7 days; assay type: cell-based
HSV-1 [3] = assay: microbe, parasite or virus in culture; assay type: cell-based
Adenovirus = assay: In vitro activity against Adenovirus (HFF; AdV 5); assay type: cell-based
JCV Mad-4 = JCV Mad-4 extracellular load in astrocyte cells; assay type: cell-based, JC virus; conditions: in the presence of CMX001
human astrocytes = assay: Toxicity evaluation in human astrocytes (XTT); assay type: cell-based; conditions: two experiments, different astrocyte lots; listed as CMX001-044
[4] = Single-dose, dose-escalation study in healthy adult volunteers; assay type: in vivo, human
Protocol: A randomized double-blind, placebo-controlled, single-dose, dose-escalation study of CMX001 in healthy adult volunteers was conducted.
Nine single dose cohorts-CMX001:placebo (2:1)
Six subjects per cohort; 36 received CMX001; 18 received placebo
Highest dose was 2 mg/kg (140 mg in a 70 kg person)
Six multiple dose cohorts-CMX001:placebo (2:1) (3 doses over 3 weeks)
Five subjects per cohort; 20 received CMX001; 10 received placebo

HCMV (AD169) = assay: HCMV real time array of viral transcripts; assay type: cell-based; conditions: CDV 50 μM, GCV 15 μM, CMX001 0.5 μM; ANOVA P<0.05
JCV = assay: Patients with JC viral infections treated with CMX001; assay type: in vivo, human
Protocol: A study has been conducted on patients with various JC viral infections and diseases associated with JC virus. After these patients are treated with CMX001, the patients have shown significant improvements.

HSV-1 [5] = assay: In vitro potency against dsDNA viruses: HSV-1; assay type: cell-based
HSV-2, strain MS = conditions: previous work; cited from earlier work
Vaccinia Virus = assay: microbe, parasite or virus in culture; assay type: cell-based
[6] = cohort 6, 600 μg/kg, still blinded
[7] = human, oral, CMX001 2 mg/kg single dose, plasma, Mean

SMILES: CCCCCCCCCCCCCCCCOCCCOP(=O)(O)CO[C@H](CO)Cn1ccc(N)nc1=O [CMX001, Hexadecyloxypropyl-cidofovir]
- Enhanced Activity (HHV-6; CMX001 versus cidofovir EC50): 50
- EC50 (HHV-6; HSB2, HSB-2): 4 nM
- AUC ([1]; 0.05 mg/kg, CMX001 0.050 mg/kg): 36.3 ng·h/mL
- Cmax ([1]; 0.05 mg/kg, CMX001 0.050 mg/kg): 5.63 ng/mL
- AUC ([1]; 0.1 mg/kg, CMX001 0.100 mg/kg): 133 ng·h/mL
- Cmax ([1]; 0.1 mg/kg, CMX001 0.100 mg/kg): 10.6 ng/mL
- AUC ([1]; 0.2 mg/kg, CMX001 0.200 mg/kg): 225 ng·h/mL
- Cmax ([1]; 0.2 mg/kg, CMX001 0.200 mg/kg): 24.5 ng/mL
- AUC ([1]; 0.4 mg/kg, CMX001 0.400 mg/kg): 526 ng·h/mL
- Cmax ([1]; 0.4 mg/kg, CMX001 0.400 mg/kg): 68.1 ng/mL
- AUC ([1]; 0.6 mg/kg, CMX001 0.600 mg/kg): 729 ng·h/mL
- Cmax ([1]; 0.6 mg/kg, CMX001 0.600 mg/kg): 115 ng/mL
- AUC ([1]; CMX001 0.025 mg/kg): 18.5 ng·h/mL
- Cmax ([1]; CMX001 0.025 mg/kg): 2.36 ng/mL
- adverse events [1, 6]: No serious adverse events (SAEs)
- clinical laboratory values [1, 6]: No drug associated clinically significant changes to clinical laboratory values
- evaluable patients responding (viral load reductions) (CMV): 3/3
- indication of nephrotoxicity ([2]; over twenty-one toxicology studies, oral route): In none of these studies
- evidence of nephrotoxicity ([2]; single and repeated dosing in animals and human volunteers, 0.1 mg/kg to 4.0 mg/kg): no evidence of nephrotoxicity
- concentration reducing the quantity of viral DNA by 10-fold (HCMV): less than 1 nanomolar
- reduction of accumulation of viral DNA (HCMV): at least three orders of magnitude
- fold reduction of viral DNA (HCMV; CMX001 10 nanomolar): 1000 fold
- amplification of viral DNA (HCMV; CMX001 above 10 nM): essentially eliminated the amplification of viral DNA
- EC50 (HSV-1 [3]; Human alphaherpesvirus 1, ACV resistant strain B-2006): 10 ± 0.7 nM
- EC50 (HSV-1 [3]; Human alphaherpesvirus 1, ACV resistant strain DM2.1): 8 nM
- EC50 (HSV-1 [3]; Human alphaherpesvirus 1, ACV resistant strain PAAr5): 10 nM
- EC50 (HSV-1 [3]; Human alphaherpesvirus 1, F (wild type), Table 9): 15 ± 6 nM
- EC50 (HSV-1 [3]; Human alphaherpesvirus 1, SC16, ACV resistant strain SC16-S1): 10 nM
- EC50 (HSV-1 [3]; Human alphaherpesvirus 1, read-out: EC50 range, panel of wild-type and ACV-resistant isolates of HSV-1 and HSV-2): 8 to 30 nM
- EC50 (HSV-1 [3]; Human alphaherpesvirus 1, strain E-377): 60 ± 30 nM
- EC50 (HSV-1 [3]; Human alphaherpesvirus 1, strain F): 10 ± 5 nM
- EC50 (HSV-1 [3]; Human alphaherpesvirus 1, strain HL-3): 10 ± 10 nM
- Enhanced Activity (Adenovirus; CMX001 versus cidofovir EC50): 65
- IC50 (Adenovirus; unidentified adenovirus): 20 nM
- EC50 (Adenovirus; unidentified adenovirus, HFF): 20 nM
- change in extracellular JCV load over 7 days (JCV Mad-4): less than 1 log
- TC50 (human astrocytes): 134400 nM and 165800 nM
- AUC(0-t) [4, 7]: 2610 ng·h/mL
- Cmax [4, 7]: 350 ng/mL
- Tmax [4, 7]: 3 h
- half-life [4, 7]: 24 h
- AUC(0-inf) ([4]; human, oral, CMX001 2 mg/kg single dose, plasma, Mean, read-out: AUCinf_obs): 2650 ng·h/mL
- tolerability ([4]; single and multiple doses): well tolerated
- levels of viral transcripts (HCMV (AD169)): Significant reductions in levels of most viral transcripts
- JCV Viral Load, Urine (JCV; Sub 1, D7): D7: 557 copies/mL
- JCV Viral Load, CSF (JCV; Sub 1, ~5 wks 2 mg/kg, D32 (Pre: 306)): D32: <300 copies/mL
- JCV Viral Load, CSF (JCV; Sub 3, 4 days (2 doses) 4 mg/kg, Post (Pre: 518)): Post: <500 copies/mL
- JCV Viral Load, Blood (JCV; Sub 4, EOT (Pre: 148)): EOT: 261 copies/mL
- JCV Viral Load, CSF (JCV; Sub 4, ~2.5 wks 4 mg/kg, EOT (Pre: 16,474)): EOT: 1070 copies/mL
- JCV Viral Load, Blood (JCV; Sub 5, ongoing ~3 wks 4 mg/kg, D7 (Pre: 1800)): D7 500 copies/mL
- Clinical Comment (JCV; individual patients Sub 1-5 during CMX001 treatment): During treatment, the patient regained swallowing; also recorded: became undetectable (<300 copies/mL) in the CSF
- Enhanced Activity (HSV-1 [5]; CMX001 versus cidofovir EC50): 250
- EC50 (HSV-1 [5]; Human alphaherpesvirus 1, MRC5, MRC-5): 60 nM
- optimal dose of CMX001 in this model (HSV-2, strain MS): 5 mg/kg
- Enhanced Activity (Vaccinia Virus; CMX001 versus cidofovir EC50): 57
- EC50 (Vaccinia Virus; Orthopoxvirus vaccinia, HFF): 800 nM
